According to patent US7807648B2, “G-rich polynucleotides for the treatment of Huntington's Disease” (University of Delaware, priority 2005, dated 2010):
“Also recorded” adds a separate entry of the source.

Experiments:
[1] = target: T1, GST-Q58-Htn (Homo sapiens, UniProt P42858, INS38QQQQQQQQQQQQQQQQQQQQQQQQQQQQQQQQQQQQQ); experiment: Biochemical/immunoblotting filter assay of mutant Htt fragment aggregation; conditions: for inhibitory activity on aggregation (overall statement): concentration not given, 0.5-60 μM tested; for inhibitory activity on aggregation (overall statement) / inhibition of aggregate formation: 24 h; for inhibition of Htt aggregation: 1-5 μM concentrations, dose curve FIG. 4; for inhibition of aggregate formation: ODN at 20 μM or 40 μM, FIG. 5/6; for reproducible inhibitory activity: biochemical assay
T1 construct: this fragment consists of the amino terminal 171 amino acids with a tract of 58 glutamine residues fused to GST; GST (N, cleaved yes)
T1 sequence (P42858 with tags, fused parts or gaps with the stated changes limits assumed): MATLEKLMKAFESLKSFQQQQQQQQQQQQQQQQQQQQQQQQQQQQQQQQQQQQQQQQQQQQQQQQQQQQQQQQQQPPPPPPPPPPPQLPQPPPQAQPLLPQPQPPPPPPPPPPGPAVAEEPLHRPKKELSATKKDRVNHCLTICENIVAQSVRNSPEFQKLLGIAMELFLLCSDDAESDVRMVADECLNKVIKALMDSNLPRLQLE

[2] = tested on: Httexon1-eGFP fusion protein aggregation in HEK293 cells; experiment: Aggregate formation (green fluorescent foci) in HEK293 cells transfected with p72Q, microscopy; assay type: cell-based, human; conditions: for inhibition of aggregate formation (number of green fluorescent foci): 150-750 nM; for reproducible inhibitory activity: cell-based assay
[3] = tested on: polyQ aggregates; conditions: cited from earlier work; for inhibition of the aggregation process: R6/2 mouse model; for toxicity: mouse, in vivo
[4] = tested on: aggregated Htt-eGFP in HEK293 cells; experiment: FACS analysis of aggregation in HEK293 cells transfected with p72Q; assay type: cell-based, human; conditions: 1 μM and 2.5 μM, 48 hours, FIG. 13
[5] = co-transfected with p72Q, 48 hours

In the case of 5′-GGGTGGGTGGGTGGGT-3′ [T30923], the “dose response of aggregation inhibition” value [1] is reported as “dose response visible”, the “inhibitory activity on aggregation (overall statement)” value (“inhibitory activity on aggregation” below) [1] is reported as “effective inhibitors of aggregation; also recorded: capable of inhibiting GST-Q58-Htn aggregation” and the “inhibition of aggregate formation (number of green fluorescent foci)” value (“inhibition … (number of green fluorescent foci)” for short) [2, 5] is reported as “could not fully substitute for HDG”.

In the case of `Nc1c(/N=N/c2ccc(-c3ccc(/N=N/c4cc(S(=O)(=O)O)c5ccccc5c4N)cc3)cc2)cc(S(=O)(=O)O)c2ccccc12` [Congo Red], the “reduction of green fluorescent foci” value ([2]; Congo Red added concurrently with p72Q (0.2 μM or 1 μM), higher dosage, FIG. 8) is reported as “significant reduction”, the “inhibition … (number of green fluorescent foci)” value [2, 5] is reported as “displayed effects similar to HDG” and the “inhibition of aggregate formation” value ([2]; lower dosage of Congo Red (0.2 μM or 1 μM), FIG. 8) is reported as “only partially inhibited”. For the same compound, the “inhibition of the aggregation process” value [3] was “inhibit the aggregation process” and the toxicity [3] was “neurotoxicity”.

In the case of “HDT: 20-mer with all T's (DNA TTTTTTTTTTTTTTTTTTTT)”, the “inhibition of Htt aggregation” value [1] is reported as “unable to detect any Htt aggregate inhibition”, the “inhibition of aggregate formation” value [1] is reported as “unable to inhibit aggregate formation; also recorded: no inhibition of aggregation was observed” and the reproducible inhibitory activity [1] is reported as “None”. For the same compound, the reproducible inhibitory activity [2] was “None”.

With “HDA: 20-mer with all As (DNA AAAAAAAAAAAAAAAAAAAA; listed as DNA, chemistry not given here)” the “inhibition of Htt aggregation” value [1] was “unable to detect any Htt aggregate inhibition”, the “inhibition of aggregate formation” value [1] was “unable to inhibit aggregate formation; also recorded: no inhibition of aggregation was observed” and the reproducible inhibitory activity [1] was “None”. The reproducible inhibitory activity [2] was “None”, the “inhibition … (number of green fluorescent foci)” value [2, 5] was “little effect on the number of aggregates; also recorded: does not appear to inhibit aggregate formation” and the “peak of high intensity eGFP (aggregates)” value [4] was “little detectable change; also recorded: no significant reduction in aggregates”.

In the case of 5′-GGGGGTGGGGGTGGGGTGGGGGT-3′ [T40216], the “inhibitory activity on aggregation” value [1] is reported as “effective inhibitors of aggregation; also recorded: capable of inhibiting GST-Q58-Htn aggregation”.

For “5′-GGTGGTGGTGGTTGTGGTGGTGGTGG-3′ (DNA GGTGGTGGTGGTTGTGGTGGTGGTGG; listed as DNA, chemistry not given here) [GRO26B]”, the “inhibitory activity on aggregation” value [1] was “inhibit Huntington aggregation”.

For `Oc1c(I)cc(Cl)c2cccnc12` [Clioquinol], the “inhibition of the aggregation process” value [3] is given as “inhibit the aggregation process” and the toxicity [3] is given as “neurotoxicity”.

For “5′-TTTGGTGGTGGTGGTTGTGGTGGTGGTGG-3′ [GRO29A]”, the “inhibitory activity on aggregation” value [1] was “inhibit Huntington aggregation”.

For “HDG 20/2: HDG 20-mer wherein every other G was substituted with a T residue (DNA GTGTGTGTGTGTGTGTGTGT; listed as DNA, chemistry not given here)”, the “activity of HDG variants with T residues inserted” value ([2]; co-transfected with p72Q, 48 hours, FIG. 11) was “None of these molecules were found to be effective inhibitors of aggregation; also recorded: reduced significantly; also recorded: low level of activity”.
